{"source": "patent US20210315474A1", "about": "“DECOUPLED COIL ASSEMBLIES, MAGNETIC RESONANCE SYSTEMS AND METHODS OF USE” (FluoID Inc, priority 2018, published 2021)", "experiment": "19F magnetic resonance imaging in vivo: tracking isoflurane in rat brain", "details": "live Sprague-Dawley rat", "source_text": "A MR system is utilized for this representative imaging experiment.\nHere, indirect inverse irradiation focused on 19F is utilized to provide rapid and specific identification of the target molecule of interest while observing 1H, while circulating in a subject organism.\nA live Sprague-Dawley rat was secured in the bed of the representative holding assembly of Example 1B. The RF coil elements were situated such that the area around its head was encircled to provide complete coverage for the brain of the animal, then the assembly placed in the MRI system of Example 1C. Localization of the spin species of interest, 19F, was accomplished with a spin-echo (or, alternatively, gradient-echo) sequence preceded with a magnetization transfer (MT) pulse allowing magnetization from 19F to 1H. The rat was subjected to increasing stepwise amounts of isoflurane, an inhaled general anesthetic with chemical structure CF3-CHCl—O—CHF2, over 30 minutes (see Table 2), then the flow was halted.\nAnatomical MR images were obtained also using a standard spin-echo (or alternatively, gradient-echo) sequence. The MT pulse duration and strength were maintained constant prior to the signal acquisition by the surface coil.", "data": [{"smiles": "FC(F)OC(Cl)C(F)(F)F", "note": "(centres unmarked) [isoflurane]", "values": [{"measurement": "19F signal seen in the brain (level of the drug reaching the CNS in real time)", "setting": "inhaled isoflurane increased stepwise 1%-3% over 30 minutes, MT pulse 19F to 1H, FIG. 17", "value": "increasing amount of 19F signal seen in the brain"}, {"measurement": "concentration of isoflurane in the brain after cessation of anesthetic delivery", "setting": "over the 30 minutes following cessation of anesthetic delivery (not shown)", "value": "disappearance of the concentration of isoflurane in the brain could be observed"}]}]}
